According to publication PMC8286840, “Identifying SARS-CoV-2 antiviral compounds by screening for small molecule inhibitors of Nsp3 papain-like protease” (Biochemical Journal, 2021):
Where a name gives a salt, the structure may show the parent alone. Read-outs that look alike come from different tables or passages of the source.

How the values were obtained:
[1] = target: T1, SARS-CoV-2 PLpro (nsp3 1564–1878) (Severe acute respiratory syndrome coronavirus 2, UniProt P0DTD1); test: biochemical; set-up: FRET-quenched peptide (Pro3) cleavage by PLpro, 10 min pre-incubation, slope over 20 min, normalised to no-compound control; settings: read-out: % of control remaining
[2] = target: T1, SARS-CoV-2 PLpro (nsp3 1564–1878); test: biochemical; set-up: FRET-quenched peptide (Pro3) cleavage by PLpro, 10 min pre-incubation, slope over 20 min, normalised to no-compound control; settings: read-out: % of control remaining; remark: listed apart in the source

## CP(=O)(O)CCCN [SKF 97541 hydrochloride]
[1]; Well no.=66, low concentration screen
  remaining activity at 1.25 µM: 97.4%
[2]; Well no.=66, high concentration screen
  remaining activity at 3.75 µM: 98.7%

## CCCC(C(=O)OCCN(CC)CC)(c1ccccc1)c1ccccc1 [SKF-525A hydrochloride]
[1]; Well no.=902, low concentration screen
  remaining activity at 1.25 µM: 105%
[2]; Well no.=902, high concentration screen
  remaining activity at 3.75 µM: 101%

## C=CCN1CCc2c(cc(O)c(O)c2Cl)C(c2ccccc2)C1 (stereo not drawn) [SKF-82958 (hydrobromide)]
[1]; Well no.=7905, low concentration screen
  remaining activity at 1.25 µM: 105%
[2]; Well no.=7905, high concentration screen
  remaining activity at 3.75 µM: 101%

## Fc1ccc(-c2nc3n(c2-c2ccncc2)CCS3)cc1 [SKF-86002]
[1]; Well no.=2652, low concentration screen
  remaining activity at 1.25 µM: 96.2%
[2]; Well no.=2652, high concentration screen
  remaining activity at 3.75 µM: 97.9%

## COc1cc2ncnc(Sc3nnc(C)s3)c2cc1OC [SKLB1002]
[1]; Well no.=5943, low concentration screen
  remaining activity at 1.25 µM: 102%
[2]; Well no.=5943, high concentration screen
  remaining activity at 3.75 µM: 102%

## CN[C@@H](C)C(=O)N[C@H]1CCCC[C@H]2CC[C@@H](C(=O)N[C@@H](c3ccccc3)c3cn(CCCCc4ccc(CCCCn5cc([C@@H](NC(=O)[C@@H]6CC[C@@H]7CCCC[C@H](NC(=O)[C@H](C)NC)C(=O)N76)c6ccccc6)nn5)cc4)nn3)N2C1=O [SM-164 Hydrochloride]
[1]; Well no.=7030, low concentration screen
  remaining activity at 1.25 µM: 105%
[1]; Well no.=8556, low concentration screen
  remaining activity at 1.25 µM: 104%
[2]; Well no.=7030, high concentration screen
  remaining activity at 3.75 µM: 102%
[2]; Well no.=8556, high concentration screen
  remaining activity at 3.75 µM: 99.5%

## O=C(Nc1ncc([N+](=O)[O-])s1)c1ccc([N+](=O)[O-])c(Cl)c1 [SM-7368]
[1]; Well no.=5947, low concentration screen
  remaining activity at 1.25 µM: 104%
[2]; Well no.=5947, high concentration screen
  remaining activity at 3.75 µM: 103%

## COc1cc2cc(c1Cl)N(C)C(=O)C[C@H](OC(=O)[C@H](C)N(C)C(=O)CCSC1CC(=O)N(CC3CCC(C(=O)ON4C(=O)CCC4=O)CC3)C1=O)[C@]1(C)O[C@H]1[C@H](C)[C@@H]1C[C@@](O)(NC(=O)O1)[C@H](OC)/C=C/C=C(\C)C2 (stereo partly drawn) [SMCC-DM1]
[1]; Well no.=8216, low concentration screen
  remaining activity at 1.25 µM: 100%
[2]; Well no.=8216, high concentration screen
  remaining activity at 3.75 µM: 96.4%

## O=C1NC(=O)/C(=C/c2cccc(C(F)(F)F)c2)S1 [SMI-4a]
[1]; Well no.=4788, low concentration screen
  remaining activity at 1.25 µM: 104%
[2]; Well no.=4788, high concentration screen
  remaining activity at 3.75 µM: 101%

## CCCCc1ccc(NC(C)=O)c(C)c1 [SMIP004]
[1]; Well no.=6972, low concentration screen
  remaining activity at 1.25 µM: 101%
[2]; Well no.=6972, high concentration screen
  remaining activity at 3.75 µM: 98.7%

## C=CCN1C[C@H](C)N([C@H](c2ccc(C(=O)N(CC)CC)cc2)c2cccc(OC)c2)C[C@H]1C [SNC80]
[1]; Well no.=1216, low concentration screen
  remaining activity at 1.25 µM: 99.3%
[2]; Well no.=1216, high concentration screen
  remaining activity at 3.75 µM: 102%

## CC(C)(C)c1cnc(CSc2cnc(NC(=O)C3CCNCC3)s2)o1 [SNS-032]
[1]; Well no.=2845, low concentration screen
  remaining activity at 1.25 µM: 105%
[2]; Well no.=2845, high concentration screen
  remaining activity at 3.75 µM: 104%

## O=C(Nc1cccc(Cl)c1)Nc1ncc(CCNc2ncnc3ccsc23)s1 [SNS-314]
[1]; Well no.=2893, low concentration screen
  remaining activity at 1.25 µM: 101%
[2]; Well no.=2893, high concentration screen
  remaining activity at 3.75 µM: 101%

## CC1(C)CC(=O)c2c(C(F)(F)F)nn(-c3ccc(C(N)=O)c(N[C@H]4CC[C@H](O)CC4)c3)c2C1 [SNX-2112]
[1]; Well no.=4635, low concentration screen
  remaining activity at 1.25 µM: 99.3%
[2]; Well no.=4635, high concentration screen
  remaining activity at 3.75 µM: 95.7%

## Oc1c2ccccc2c2c3c(cccc13)N=N2 [SP 600125 - Anthra[1-9-cd]pyrazol-6(2H)-one]
[1]; Well no.=2432, low concentration screen
  remaining activity at 1.25 µM: 96.1%
[2]; Well no.=2432, high concentration screen
  remaining activity at 3.75 µM: 105%

## COc1cc2cc(c1Cl)N(C)C(=O)C[C@H](OC(=O)[C@H](C)N(C)C(=O)CCC(C)(C)SSCCCC(=O)ON1C(=O)CCC1=O)[C@]1(C)O[C@H]1[C@H](C)[C@@H]1C[C@@](O)(NC(=O)O1)[C@H](OC)/C=C\C=C(\C)C2 [SPDB-DM4]
[1]; Well no.=7700, low concentration screen
  remaining activity at 1.25 µM: 106%
[2]; Well no.=7700, high concentration screen
  remaining activity at 3.75 µM: 106%

## Nc1ncnc2c1ncn2C1CCCO1 (stereo not drawn) [SQ22536]
[1]; Well no.=6236, low concentration screen
  remaining activity at 1.25 µM: 103%
[1]; Well no.=7958, low concentration screen
  remaining activity at 1.25 µM: 92.2%
[2]; Well no.=6236, high concentration screen
  remaining activity at 3.75 µM: 104%
[2]; Well no.=7958, high concentration screen
  remaining activity at 3.75 µM: 93.7%

## Nc1ncnc2c1ncn2C1CCCO1 (stereo not drawn) [SQ 22536]
[1]; Well no.=1517, low concentration screen
  remaining activity at 1.25 µM: 98.3%
[2]; Well no.=1517, high concentration screen
  remaining activity at 3.75 µM: 99.9%

## O=C(O)CCC/C=C\C[C@@H]1[C@H](CNNC(=O)Nc2ccccc2)[C@H]2CC[C@@H]1O2 [SQ-29548]
[1]; Well no.=4526, low concentration screen
  remaining activity at 1.25 µM: 92.8%
[2]; Well no.=4526, high concentration screen
  remaining activity at 3.75 µM: 94.8%

## O=C(Nc1ccc(C(O)(C(F)(F)F)C(F)(F)F)cc1)c1ccccc1Cl [SR0987]
[1]; Well no.=8133, low concentration screen
  remaining activity at 1.25 µM: 95.1%
[2]; Well no.=8133, high concentration screen
  remaining activity at 3.75 µM: 99.6%

## CC(=O)Nc1nc(C)c(S(=O)(=O)Nc2ccc(C(O)(C(F)(F)F)C(F)(F)F)cc2)s1 [SR1001]
[1]; Well no.=8467, low concentration screen
  remaining activity at 1.25 µM: 106%
[2]; Well no.=5461, high concentration screen
  remaining activity at 3.75 µM: 111%
[2]; Well no.=8467, high concentration screen
  remaining activity at 3.75 µM: 106%

## O=C(Nc1ccc(C(O)(C(F)(F)F)C(F)(F)F)cc1)c1ccc(C(F)(F)F)cc1 [SR1078]
[1]; Well no.=8503, low concentration screen
  remaining activity at 1.25 µM: 107%
[2]; Well no.=8503, high concentration screen
  remaining activity at 3.75 µM: 105%

## O=S(=O)(Nc1ccc(C(O)(C(F)(F)F)C(F)(F)F)cc1)c1cccs1 [SR3335]
[1]; Well no.=8457, low concentration screen
  remaining activity at 1.25 µM: 110%
[2]; Well no.=8457, high concentration screen
  remaining activity at 3.75 µM: 107%

## CN(C)CCOc1cc(-c2cn[nH]c2)ccc1NC(=O)C1COc2ccccc2O1 (stereo not drawn) [SR3677]
[1]; Well no.=2989, low concentration screen
  remaining activity at 1.25 µM: 97.2%
[2]; Well no.=2989, high concentration screen
  remaining activity at 3.75 µM: 98.3%

## CC1(C)CCC(C)(C)c2cc(C3(c4ccc(C(=O)O)cc4)OCCO3)ccc21 [SR11237]
[1]; Well no.=5768, low concentration screen
  remaining activity at 1.25 µM: 96%
[2]; Well no.=5768, high concentration screen
  remaining activity at 3.75 µM: 90.6%

## O=C(O)c1ccccc1Nc1cccc(OCc2ccc3ccccc3n2)c1 [SR 2640]
[1]; Well no.=1316, low concentration screen
  remaining activity at 1.25 µM: 101%
[2]; Well no.=1316, high concentration screen
  remaining activity at 3.75 µM: 101%

## CCOP(=O)(OCC)C(=Cc1cc(C(C)(C)C)c(O)c(C(C)(C)C)c1)P(=O)(OCC)OCC [SR 12813]
[1]
  remaining activity at 1.25 µM: 96.5%
[2]
  remaining activity at 3.75 µM: 103%

## CC(C)c1cc(C(C)C)c(-c2csc(N(CCN(C)C)Cc3cccnc3)n2)c(C(C)C)c1 [SR 27417]
[1]; Well no.=5599, low concentration screen
  remaining activity at 1.25 µM: 100%
[2]; Well no.=5599, high concentration screen
  remaining activity at 3.75 µM: 100%

## NC1CCN(c2cccc(Cl)n2)CC1 [SR 57227A]
[1]; Well no.=1262, low concentration screen
  remaining activity at 1.25 µM: 103%
[2]; Well no.=1262, high concentration screen
  remaining activity at 3.75 µM: 102%

## COc1ccc(-c2ccc(=N)n(CCCC(=O)O)n2)cc1 [SR-95531]
[1]; Well no.=1325, low concentration screen
  remaining activity at 1.25 µM: 103%
[2]; Well no.=1325, high concentration screen
  remaining activity at 3.75 µM: 98.9%

## O=C(Nc1ccccc1-c1cn2c(CN3CCNCC3)csc2n1)c1cnc2ccccc2n1 [SRT1720]
[1]; Well no.=4673, low concentration screen
  remaining activity at 1.25 µM: 100%
[2]; Well no.=4673, high concentration screen
  remaining activity at 3.75 µM: 98.8%

## C[C@@H](Nc1cc(NS(=O)(=O)N2CCC2)nc(SCc2cccc(F)c2F)n1)[C@@H](O)CO [SRT3109]
[1]; Well no.=8607, low concentration screen
  remaining activity at 1.25 µM: 108%
[2]; Well no.=8607, high concentration screen
  remaining activity at 3.75 µM: 104%

## C[C@H](Nc1cc(NS(=O)(=O)N2CCC2)nc(SCc2cccc(F)c2F)n1)[C@@H](O)CO [SRT3190]
[1]; Well no.=7438, low concentration screen
  remaining activity at 1.25 µM: 104%
[1]; Well no.=8507, low concentration screen
  remaining activity at 1.25 µM: 98.1%
[2]; Well no.=7438, high concentration screen
  remaining activity at 3.75 µM: 104%
[2]; Well no.=8507, high concentration screen
  remaining activity at 3.75 µM: 97.8%

## O=c1cc(C(Cl)(Cl)Cl)oc2ccc(Cl)cc12 [ST034307]
[1]; Well no.=7185, low concentration screen
  remaining activity at 1.25 µM: 103%
[2]; Well no.=7185, high concentration screen
  remaining activity at 3.75 µM: 95.4%
